Data as given in patent US10478421B1, “Sortilin binding compounds, formulations, and uses thereof” (University of Florida, priority 2016, dated 2019).

Columns and labels:
PCSK9 = assay: Cellular PCSK9 by immunoblot in McA cells; assay type: cell-based, rat; conditions: 10 μM, 18 h, 1% BSA/DMEM
Method: McA cells were incubated in 1% BSA/DMEM with DMSO, 541 (10 μM) or 984 (10 μM) for 18 h. Cellular proteins were extracted and analyzed by IB for LDLR (LS-C146979, 1:2000) (FIG. 5A) or PCSK9 (Ab125251, 1:2000) (FIG. 5B) using HRP-linked secondary antibody and ECL detection. Loading controls included β-ACTIN (Rockland ph600-401-886) and GAPDH (cb1001mAb (6C5). Band intensities were measured using ChemiDocXRS+ system and evaluated using ImageLab 5.1 software (BioRad). Results are average of triplicates ±S.D. PCSK9 is a known ligand for sortilin where sortilin acts as a chaperone for PCSK9 secretion.

McA cells = assay: VLDL-B100 secretion by McA cells (immuno slot blotting); assay type: cell-based, rat; conditions: for effect on VLDL-B100 secretion: increasing concentrations; for increase in VLDL-B100 secretion over the no cpd984 control: 18 h, 1% BSA/DMEM, insulin sensitive McA cells
Method: McArdle RH-7777 cells (McA cells) were cultured as previously described in serum containing complete Dulbecco's Modified Eagle's Medium (cDMEM). To induce insulin sensitivity, McA cells at 50-60% confluency were incubated for 18 h in serum-free media containing DMEM containing 1% (w/v) BSA (1% BSA/DMEM). Human sortilin (hsortilin) (Ser78-Asn755) with C-terminal 6-His tag was from R&D Systems, Inc., (Minneapolis, Minn.). Plasma from fasted Sprague Dawley rats (BioreclamationIVT, Westbury, N.Y.) was used to prepare VLDL apo B standards. Mouse monoclonal antibody to rat B100 was prepared in our laboratory and characterized previously. Rabbit anti-sortilin antibody was from GeneTex (GTX54854, Irvine, Calif.) or from Abcam (ab16640, Cambridge, Mass.). Rabbit anti-p-AKT (9271), rabbit anti-AKT (9272), and rabbit anti-insulin receptor β-subunit (IRβ, 3025) were from Cell Signaling Technology (Danvers, Mass.). Mouse anti-pY Platinum 4G10 was from EMD Millipore (Temecula, Calif.). (Horseradish peroxidase linked donkey anti-rabbit IgG (NA9340), sheep anti-mouse IgG (NXA931) and ECL Prime Western Blotting Detection Reagent (RPN2232) were from GE Healthcare (Buckinghamshire, UK). All other materials and reagents were essentially as described previously. Compound 98,477,898 (25)-1-methyl-N-{3-[(3-phenylpropanoyl)-amino]phenyl}pyrrolidine-2-carboxamide (cpd984) was obtained from ChemBridge Corp. (San Diego, Calif.). A stock solution of cpd984 (10 mM) was prepared in DMSO, and stored in aliquots at −20° C.
Experimental media were adjusted to 1% (v/v) protease inhibitor cocktail I (EMD Millipore) and to a salt density of 1.019 g/ml by addition of a solution of NaBr (d=1.495 g/ml). VLDL was isolated by ultracentrifugation in a L-70 Ultracentrifuge (Beckman Coulter, Inc., Fullterton, Calif.) using a 50Ti rotor (200,000×g, 18 h, 14° C.). Following centrifugation, the top 1.5-2.0 ml VLDL fraction was removed using a syringe and weighed to determine volume. VLDL samples were applied in triplicate wells (0.2-0.4 ml per well) in a Bio-Dot® SF apparatus (Bio-Rad). Two PVDF membranes were used together for blotting: the top was Immobilon-P (IPVH09120 SF) and the bottom was Immobilin-PSQ (ISEQ09120 SF); both were obtained from EMD Millipore. VLDL apo B standards were prepared from rat plasma VLDL and total apo B (B100 and B48) and B100 content were determined on stained gels following SDS-PAGE separation. VLDL-apo B standards in TBS were slotted in duplicate alongside test samples. After filtration, 0.4 ml of TBS was added as a wash. […] At this stage slot blots were evaluated similarly to immunoblotting. After chemiluminescence development and B100 quantitation, slot blots were stripped by incubation in Restore™ PLUS for 15 min at room temperature (Thermo Scientific, Rockford, Ill.) and were reblocked overnight at 4° C. Total apo B (B100 and B48) present in VLDL was then evaluated following incubation with rabbit polyclonal anti-rat apo B. The bottom PVDF membrane was carried through the entire procedure to assure there was no “bleed through” of test samples. VLDL-apo B and VLDL-B100 content were calculated from standard curves generated by VLDL apo B standards. […]
McArdle rat hepatocytes were incubated with increasing concentrations of cpd984 or cpd541 for 14-18 h and media were collected. […] Binding was detected by chemiluminescence detection and quantified using Bio-Rad software. […]

Compound | effect on cellular PCSK9 (PCSK9) | effect on VLDL-B100 secretion (McA cells; 14-18 h) | increase in VLDL-B100 secretion over the no cpd984 control (McA cells; 10 μM) | increase in VLDL-B100 secretion over the no cpd984 control (McA cells; 25 μM) | effect of 984 on VLDL-B100 and VLDL-apoE secretion when given in combination with 541 (McA cells; combination of both compounds, 0.1-25 μM, 14-18 h)
CC(NC(=O)c1ccccc1NCC(=O)O)c1ccccc1 (stereo not shown) [cpd541] | no biological difference | decreases VLDL-B100 secretion |  |  | 
CN1CCC[C@H]1C(=O)Nc1cccc(NC(=O)CCc2ccccc2)c1 [cpd984, (2S)-1-methyl-N-{3-[(3-phenylpropanoyl)-amino]phenyl} pyrrolidine-2-carboxamide] | accumulation of cellular PCSK9 | increases VLDL-B100 secretion | 30% | 61% | abrogated
